ChEMBL document CHEMBL1201862, “PubChem BioAssay data set” (2004)
Structures can show the parent of a compound that is named as a salt.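 96-well plates; 48 h exposure; 5 concentrations. Endpoints by linear interpolation between flanking doses. Not reached: highest tested concentration assigned. Abbreviation: GI50, concentration required for 50% inhibition of growth.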 The source made the active and inactive calls. Rule as the data show it: active = GI50 up to about 1.1 µM and inactive = higher.

Tests used:
Assay in all cases: NCI-60 cell line screen, 48 h
K562 = tested on: K562
UACC-257 = tested on: UACC-257
LOX IMVI = tested on: LOX IMVI
MOLT-4 = tested on: MOLT-4
SF-539 = tested on: SF-539
UO-31 = tested on: UO-31
CAKI-1 = tested on: CAKI-1
SF-295 = tested on: SF-295
HT-29 = tested on: HT-29
SK-MEL-2 = tested on: SK-MEL-2
SK-MEL-5 = tested on: SK-MEL-5
RPMI-8226 = tested on: RPMI-8226
NCI-H23 = tested on: NCI-H23
EKVX = tested on: EKVX
TK-10 = tested on: TK-10
OVCAR-3 = tested on: OVCAR-3

Measured: GI50

CNC(C)Cc1ccccc1OC (configuration not stated) [METHOXYPHENAMINE HYDROCHLORIDE]
inactive: K562 > 100 µM | UACC-257 > 100 µM | LOX IMVI > 100 µM | MOLT-4 > 100 µM | SF-539 > 100 µM | UO-31 > 100 µM | CAKI-1 > 100 µM | SF-295 > 100 µM | HT-29 > 100 µM | SK-MEL-2 > 100 µM | SK-MEL-5 > 100 µM | RPMI-8226 > 100 µM | NCI-H23 > 100 µM | EKVX > 100 µM | TK-10 > 100 µM | OVCAR-3 > 100 µM

C=C(C#N)C1OCC2OC(C)(C)OC21 (configuration not stated)
inactive: K562 28.1 µM | UACC-257 15.5 µM | LOX IMVI 15 µM | MOLT-4 15.7 µM | SF-539 16.1 µM | UO-31 40.5 µM | CAKI-1 23.4 µM | SF-295 45.9 µM | HT-29 34.9 µM | SK-MEL-2 27.4 µM | SK-MEL-5 17.3 µM | NCI-H23 18.6 µM | EKVX 24.4 µM | TK-10 34 µM | OVCAR-3 21.7 µM

O=C/C1=C/C2=Cc3ccccc3C=C(/C=C(/C=O)C1)C2
inactive: K562 18.1 µM | UACC-257 30.9 µM | LOX IMVI 33.9 µM | MOLT-4 15.8 µM | SF-539 46.6 µM | UO-31 34 µM | CAKI-1 41.1 µM | SF-295 29 µM | HT-29 40.5 µM | SK-MEL-2 > 100 µM | SK-MEL-5 35.3 µM | RPMI-8226 32 µM | NCI-H23 32.9 µM | EKVX > 100 µM | TK-10 > 100 µM | OVCAR-3 37.5 µM

CN(C)/C(=N/C(=O)Nc1ccccc1)SCc1ccccc1
inactive: K562 76.9 µM | UACC-257 > 100 µM | LOX IMVI > 100 µM | MOLT-4 73.3 µM | SF-539 > 100 µM | UO-31 > 100 µM | CAKI-1 > 100 µM | SF-295 > 100 µM | HT-29 > 100 µM | SK-MEL-2 85.1 µM | SK-MEL-5 > 100 µM | RPMI-8226 > 100 µM | NCI-H23 > 100 µM | EKVX > 100 µM | TK-10 > 100 µM | OVCAR-3 > 100 µM

COC1=C(OC)CCC(/C(C#N)=C/c2ccc(OC)c(OC)c2)=C1
inactive: K562 48.3 µM | UACC-257 > 100 µM | LOX IMVI > 100 µM | MOLT-4 > 100 µM | SF-539 59.3 µM | UO-31 36.1 µM | CAKI-1 > 100 µM | SF-295 15.9 µM | HT-29 80.9 µM | SK-MEL-2 85.9 µM | SK-MEL-5 > 100 µM | RPMI-8226 > 100 µM | NCI-H23 79.1 µM | TK-10 34.2 µM | OVCAR-3 > 100 µM

CCN(CC)c1c(C)nnn1C1OC(COC(C)=O)C(OC(C)=O)C(OC(C)=O)C1OC(C)=O (configuration not stated)
inactive: K562 > 100 µM | UACC-257 > 100 µM | MOLT-4 > 100 µM | SF-539 > 100 µM | UO-31 > 100 µM | CAKI-1 > 100 µM | SF-295 > 100 µM | HT-29 > 100 µM | SK-MEL-5 > 100 µM | RPMI-8226 28.6 µM | NCI-H23 > 100 µM | EKVX > 100 µM | TK-10 > 100 µM | OVCAR-3 > 100 µM

CC(=O)OC1COC(n2ccc3cc(Br)c([N+](=O)[O-])cc32)C(OC(C)=O)C1OC(C)=O (configuration not stated)
inactive: K562 29.6 µM | UACC-257 19.2 µM | LOX IMVI 20.1 µM | MOLT-4 > 10 µM | SF-539 22.2 µM | UO-31 12.6 µM | CAKI-1 33.7 µM | SF-295 20.9 µM | HT-29 28.7 µM | SK-MEL-2 > 10 µM | SK-MEL-5 > 10 µM | RPMI-8226 22.5 µM | NCI-H23 23.3 µM | EKVX 39.4 µM | TK-10 27 µM | OVCAR-3 23.8 µM

Cc1cc2c(=O)c(C)n[nH]c2c(C#N)c1C
inactive: UACC-257 > 100 µM | LOX IMVI > 100 µM | MOLT-4 > 100 µM | SF-539 > 100 µM | UO-31 > 100 µM | SF-295 > 100 µM | HT-29 > 100 µM | SK-MEL-2 > 10 µM | RPMI-8226 > 100 µM | NCI-H23 > 100 µM | EKVX > 100 µM | TK-10 > 100 µM | OVCAR-3 > 100 µM

CO[C@@H]1C=C[C@@]23c4cc5c(cc4CN(C[C@@H]2O)[C@H]3C1)OCO5 [(+)-HAEMANTHAMINE]
inactive: K562 7.67 µM | UACC-257 22.6 µM | LOX IMVI 6.38 µM | MOLT-4 6.47 µM | SF-539 28.6 µM | UO-31 16.5 µM | CAKI-1 6.22 µM | SF-295 19.1 µM | HT-29 10.4 µM | SK-MEL-2 9.16 µM | SK-MEL-5 > 10 µM | RPMI-8226 29.6 µM | NCI-H23 23.6 µM | EKVX 38 µM | TK-10 30.8 µM | OVCAR-3 46.6 µM

O=C1OC(c2ccccc2)=N/C1=C/N1CCCC1C(=O)O (configuration not stated)
inactive: K562 > 100 µM | UACC-257 > 100 µM | LOX IMVI > 100 µM | SF-539 > 100 µM | UO-31 > 100 µM | CAKI-1 > 100 µM | SF-295 > 100 µM | HT-29 > 100 µM | SK-MEL-2 > 100 µM | SK-MEL-5 > 100 µM | RPMI-8226 > 100 µM | NCI-H23 > 100 µM | EKVX > 100 µM | TK-10 > 100 µM | OVCAR-3 > 100 µM

NCC1(N2CCOCC2)C2CCCC21CNc1ccccc1 (configuration not stated)
inactive: K562 90.6 µM | UACC-257 > 100 µM | LOX IMVI > 100 µM | MOLT-4 92.3 µM | SF-539 > 100 µM | UO-31 > 100 µM | CAKI-1 > 100 µM | SF-295 > 100 µM | HT-29 > 100 µM | SK-MEL-5 > 100 µM | NCI-H23 > 100 µM | TK-10 > 100 µM | OVCAR-3 > 100 µM

CC1=NN(C(=O)CC(=O)Nc2ccccc2F)C(=O)C1/N=N/c1ccccc1[N+](=O)[O-] (configuration not stated)
inactive: K562 > 100 µM | UACC-257 97.3 µM | MOLT-4 73.8 µM | SF-539 58.7 µM | UO-31 81.1 µM | CAKI-1 75.5 µM | SF-295 > 100 µM | HT-29 > 100 µM | SK-MEL-2 > 100 µM | SK-MEL-5 17.9 µM | RPMI-8226 > 100 µM | NCI-H23 94.6 µM | EKVX 26.5 µM | TK-10 > 100 µM | OVCAR-3 96.4 µM

CCOC(=O)C(CNc1ccc(O)cc1)NC(=O)c1ccccc1 (configuration not stated)
inactive: K562 37.8 µM | UACC-257 > 100 µM | LOX IMVI 99.8 µM | MOLT-4 50.8 µM | SF-539 > 100 µM | UO-31 > 100 µM | CAKI-1 > 100 µM | SF-295 > 100 µM | HT-29 > 100 µM | SK-MEL-2 > 100 µM | SK-MEL-5 > 100 µM | RPMI-8226 53.6 µM | NCI-H23 > 100 µM | EKVX > 100 µM | TK-10 > 100 µM | OVCAR-3 > 100 µM

NNC(=O)C1CCC(=O)N1S(=O)(=O)c1ccccc1 (configuration not stated)
inactive: K562 > 100 µM | UACC-257 > 100 µM | LOX IMVI > 100 µM | MOLT-4 > 100 µM | SF-539 > 100 µM | UO-31 > 100 µM | CAKI-1 > 100 µM | SF-295 > 100 µM | HT-29 > 100 µM | SK-MEL-2 > 100 µM | SK-MEL-5 > 100 µM | RPMI-8226 > 100 µM | NCI-H23 > 100 µM | EKVX > 100 µM | TK-10 > 100 µM | OVCAR-3 > 100 µM

S=c1sc2sc(=S)sc2s1
inactive: K562 22.3 µM | UACC-257 > 100 µM | LOX IMVI 33.5 µM | MOLT-4 28.8 µM | SF-539 23.9 µM | UO-31 30 µM | CAKI-1 > 100 µM | SF-295 20.6 µM | HT-29 29.6 µM | SK-MEL-2 > 100 µM | SK-MEL-5 > 100 µM | RPMI-8226 23.1 µM | TK-10 > 100 µM

CSC1=Nc2ccccc2N=C(c2ccc(Cl)cc2)C1
inactive: K562 34.8 µM | UACC-257 27.7 µM | LOX IMVI 27.1 µM | MOLT-4 21.7 µM | SF-539 40 µM | UO-31 24.5 µM | CAKI-1 22 µM | SF-295 43.9 µM | HT-29 23 µM | SK-MEL-2 25.4 µM | SK-MEL-5 24.2 µM | RPMI-8226 33.4 µM | NCI-H23 31.7 µM | EKVX 20.5 µM | OVCAR-3 33.3 µM

Cn1cc(C(=O)c2ccccc2)c2ccccc2c1=O
inactive: UACC-257 > 100 µM | LOX IMVI > 100 µM | MOLT-4 > 100 µM | SF-539 > 100 µM | CAKI-1 50.6 µM | SF-295 93.5 µM | HT-29 > 100 µM | SK-MEL-2 > 100 µM | SK-MEL-5 > 100 µM | RPMI-8226 94.2 µM | EKVX > 100 µM | TK-10 73.1 µM | OVCAR-3 > 100 µM

CC(C)(C)C(=O)/C=C/c1cccc(Oc2ccccc2)c1
inactive: K562 5.93 µM | UACC-257 14 µM | MOLT-4 14.6 µM | SF-539 20.1 µM | UO-31 14.4 µM | SF-295 11.8 µM | HT-29 9.12 µM | SK-MEL-2 13.1 µM | SK-MEL-5 14.4 µM | RPMI-8226 3.94 µM | NCI-H23 > 10 µM | EKVX 18.7 µM | TK-10 > 10 µM

CCCCCCCCCCCCCC1CCC(CC)N1 (configuration not stated)
inactive: K562 14.8 µM | UACC-257 20.7 µM | LOX IMVI 17.5 µM | MOLT-4 11.9 µM | SF-539 17.6 µM | UO-31 14.2 µM | CAKI-1 15.8 µM | SF-295 18.6 µM | HT-29 5.81 µM | SK-MEL-2 21.8 µM | SK-MEL-5 17.8 µM | RPMI-8226 14 µM | NCI-H23 18.6 µM | EKVX 16.9 µM | TK-10 17.7 µM | OVCAR-3 16.2 µM
